Measurements: ChEMBL document CHEMBL3352201, “P21-Activated Kinase 4 (PAK4) Inhibitors as Potential Cancer Therapy” (ACS Med Chem Lett, 2015)

What was measured:
[1] = target: Serine/threonine-protein kinase PAK 1 (Homo sapiens, UniProt Q13153); assay: Inhibition of human recombinant PAK1 kinase domain assessed as phosphorylation of FRET peptide substrate at Ser/Thr20 by […] assay
[2] = target: Serine/threonine-protein kinase PAK 4 (Homo sapiens, UniProt O96013); assay: Inhibition of human recombinant PAK4 kinase domain assessed as phosphorylation of FRET peptide substrate at Ser/Thr20 by […] assay
Chain of Serine/threonine-protein kinase PAK 4 (O96013 whole entry, the tested form may be a part): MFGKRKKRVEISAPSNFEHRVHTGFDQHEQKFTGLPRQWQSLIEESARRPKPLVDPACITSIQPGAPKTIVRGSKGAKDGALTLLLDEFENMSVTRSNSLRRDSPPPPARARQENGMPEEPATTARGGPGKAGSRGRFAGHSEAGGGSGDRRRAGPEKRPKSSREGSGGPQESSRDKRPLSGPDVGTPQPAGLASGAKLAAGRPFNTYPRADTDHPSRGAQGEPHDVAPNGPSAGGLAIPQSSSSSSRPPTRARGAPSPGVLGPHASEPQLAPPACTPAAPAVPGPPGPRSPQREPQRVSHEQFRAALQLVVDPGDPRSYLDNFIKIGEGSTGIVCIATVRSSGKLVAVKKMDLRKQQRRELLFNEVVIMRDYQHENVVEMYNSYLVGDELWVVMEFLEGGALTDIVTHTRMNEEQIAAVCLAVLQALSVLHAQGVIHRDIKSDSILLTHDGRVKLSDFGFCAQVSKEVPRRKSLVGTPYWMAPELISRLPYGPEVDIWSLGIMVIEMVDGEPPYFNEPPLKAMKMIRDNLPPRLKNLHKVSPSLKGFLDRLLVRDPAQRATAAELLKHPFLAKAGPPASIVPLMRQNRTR

Chain of Serine/threonine-protein kinase PAK 1 (Q13153 whole entry, the tested form may be a part): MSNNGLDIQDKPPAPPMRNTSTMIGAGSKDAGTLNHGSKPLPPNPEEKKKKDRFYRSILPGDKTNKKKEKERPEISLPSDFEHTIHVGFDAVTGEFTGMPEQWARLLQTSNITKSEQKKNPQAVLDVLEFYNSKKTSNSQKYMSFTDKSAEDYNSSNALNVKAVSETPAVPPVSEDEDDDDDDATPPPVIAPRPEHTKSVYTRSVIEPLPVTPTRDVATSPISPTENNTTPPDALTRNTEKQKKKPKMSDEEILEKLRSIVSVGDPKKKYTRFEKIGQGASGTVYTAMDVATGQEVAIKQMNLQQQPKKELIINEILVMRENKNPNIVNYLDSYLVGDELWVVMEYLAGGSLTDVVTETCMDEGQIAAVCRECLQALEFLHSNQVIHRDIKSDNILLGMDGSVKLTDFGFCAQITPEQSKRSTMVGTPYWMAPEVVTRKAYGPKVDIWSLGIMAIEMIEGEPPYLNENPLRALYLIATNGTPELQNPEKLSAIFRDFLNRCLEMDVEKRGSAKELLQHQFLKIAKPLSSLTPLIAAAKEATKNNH

## CNc1nc2ccc(C#C[C@@](C)(O)c3cc(C)on3)cc2n1-c1ncnc(N)n1
[1]
  IC50: > 4500 nM
[2]
  IC50: 35.5 nM

## COCCNc1nc2ccc(C#CC3(O)CCCCC3)cc2n1-c1ccnc(N)n1
[2]
  IC50: 4.77 nM

## CCNc1nc2ccc(C#CC(C)(C)O)cc2n1-c1ncnc(N)n1
[1]
  IC50: 9600 nM
[2]
  IC50: 65.5 nM

## CCNc1nc2ccc(C#C[C@@](C)(O)c3cc(C)on3)cc2n1-c1ncnc(N)n1
[1]
  IC50: > 4500 nM
[2]
  IC50: 5.3 nM
